Entries after “also recorded” stand apart in the source; their conditions may differ.
Tests used:
[1] = tested on: TDP-43 and WT-SOD1; assay: WT-SOD1 and TDP-43 aggregation induced by ectopic TDP-43 expression in SK-N-SH cells; assay type: cell-based; conditions: TDP-43 overexpression
Description: Cells with SOD1 inclusions (white arrows; strong intensity of SOD1) were counted and the percentages are shown with standard deviation. n = 3 independent experiments; two-tailed Student’s t-test. Scale bar, 10 μm. d, e PRG-A-04 reduced misfolding of MT-SOD1. d The affinity of misfolding-specific antibody to MT-SOD1 was inhibited by PRG-A-04. e Quantification of band intensity with Image J software. Mean ± SD. A.U., arbitrary units. *P < 0.05, **P < 0.01. f PRG-A-04 reduced the MT-SOD1 recombinant protein-induced increase of self-oligomerization in vitro. g WT-SOD1 and TDP-43 oligomerization induced by ectopic TDP-43 expression was abolished by PRG-A-04 treatment. h–k WT-SOD1 aggregation induced by ectopic TDP-43 expression was reduced by PRG-A-04 treatment. […] Scale bars, 10 μm. i PRG-A-04 reduced WT-SOD1 inclusions triggered by TDP-43 overexpression. Inclusion-positive cells (white arrows in h, strong intensity of SOD1) were counted and the percentages are shown as mean ± SD. j PRG-A-04 reduced the ratio of cells with cytoplasmic TDP-43 inclusions to tdtomato-positive ones. Cells with cytoplasmic TDP-43 (white arrows) among tdtomato positive ones were counted in randomly selected fields by photomicrographs and the cytosol/nucleus ratio was shown with ± SD. k PRG-A-04 reduced cytoplasmic TDP-43 inclusion. Mean ± SD. *P < 0.05, **P < 0.01, ***P < 0.005 […]

[2] = tested on: MT-SOD1 recombinant protein; assay: In vitro oligomerization of recombinant GST-SOD1 (non-denaturing); assay type: biochemical; conditions: GST-SOD1 4 μg/mL, PRG-A-04 10 μmol/L, 30 min, room temperature
Experimental: For detecting the oligomerization assay promoted by mutant-type (MT)-SOD1 recombinant proteins in vitro, GST-SOD1 recombinant protein (4 μg/mL) was incubated with PRG-A-04 (10 μmol/L) for 30 min at room temperature in PBS and the samples were mixed with non-denaturing sample buffer. Those were separated in SDS-PAGE gel without boiling.

[3] = tested on: MT-SOD1; assay: SOD1 oligomerization assay in cells transfected with MT-SOD1 (glutaraldehyde fixation, SDS-PAGE); assay type: cell-based
Experimental: For SDS-PAGE, proteins were extracted from cells with the RIPA buffer (50 mmol/L Tris–Cl, pH 7.5, 150 mmol/L NaCl, 1% NP-40, 0.1% SDS and […]). To detect the oligomer status, the cells were harvested with the TNNI buffer (50 mmol/L Tris–Cl, pH 7.5, 150 mmol/L NaCl, 0.3% NP-40, 100 mmol/L iodoacetamide, protease inhibitor cocktails) and reacted with 0.04% glutaraldehyde (Glu) for 30 min, and then SDS-PAGE was performed using the pan-SOD1 antibody. Samples were separated via SDS-PAGE and transferred to PVDF membrane. Blotted membranes were blocked by 3% skim milk containing TBST buffer for 1 h and incubated with specific antibodies. The following primary antibodies were used: pan-SOD1 (GTX100554) from Genetex (Irvine, CA); misfolded SOD1-specific antibody (B8H10) from MediMabs (Montreal, Canada); Actin (sc-1616), GST (sc-138), and GFP (Green fluorescent protein; sc-8036) antibodies from Santa Cruz Biotechnology (Santa Cruz, CA); TDP-43 antibody (10782–2-AP) from Proteintech (Rosemont, IL); anti-FLAG (Sigma; F3165) from Sigma-Aldrich (St. Louis, MO). HRP-conjugated goat anti-mouse, goat anti-rabbit and mouse anti-goat antibodies (Pierce, Thermo Fisher Scientific, Inc., Rockford, IL) were used as secondary antibodies. The blots were detected using an ECL assay (Advansta) and images were acquired using the […] ImageQuant 800 (Cytiva) system and an X-Ray film detector. […]

For `COc1cc(C=CCOC2Cc3cc4ccc(=O)oc4cc3OC2(C)C)ccc1[N+](=O)[O-]` (centres unmarked) [PRG-A-04], the “cytosolic mislocalization of TDP-43” value [1] was “significantly reduced”, the “effect on TDP-43 and SOD1 aggregation” value [1] was “inhibitory effect on TDP-43 and SOD1 aggregation” and the “effect on oligomerization of recombinant MT-SOD1 in vitro” value [2] was “inhibited the oligomerizing or aggregation property of MT-SOD1”. For the same compound, the “effect on SOD1 dimer formation” value ([3]; cells transfected with MT-SOD1) was “did not affect dimer formation” and the “effect on MT-SOD1 aggregation / oligomerization” value ([3]; cells transfected with MT-SOD1 vectors) was “suppressed the MT-SOD1 aggregation; also recorded: blocked aggregation of various SOD1 mutants; also recorded: suppressed SOD1 oligomerization by MT-SOD1 in a dose-dependent manner”.
